Assay [1] concerns herpes simplex virus type I. Briefly: Anti-herpes viral yield reduction in vero cells, plaque method. Format: cell-based, herpes simplex virus KOS (type 1). As to conditions: 24 hours post infection. On the procedure:
(§1) Two strains of herpes simplex virus are used: KOS (type 1) and EKC (type 2). Prepare all of the virus stocks by infecting vero cells at an input multiplicity of 0.1 PFU/cell. Sonically disrupt the cultures at 20-24 hours post infection and store them at -70°C after inclusion of DMSO to 5% (v/v) to prevent freeze damage.
(§2) Determine the anti-herpes viral activity of the compounds by a known method (Ash and Diekema, Antiviral Research, 8: 71-83 (1987)). For example, infect vero cells with each strain of HSV at 1 PFU/Cell. At the end of the absorption period (60 min., 36°C), remove the unattached virus. Wash cell sheets twice with Eagles basal medium (EBM) and 2% fetal calf serum (FCS). Add fresh medium containing the test compounds. Finally, determine viral yields at 24 hours post infection by plaque method on vero cells with methyl cellulose overlay (0.5% in EBM + 1% FCS).

The subject of assay [2] is herpes simplex virus type II. The assay is described as above. As to conditions: 24 hours post infection; for Virus Titer: Viral Control 1.24x10^5. It is filed as cell-based, herpes simplex virus EKC (type 2). On the procedure:
as §1, §2

[3] abbreviates: Single agent, Conc. 5.0 ng/ml, Viral Control 2.6x10^5.

Molecule `Nc1nc2c(ncn2COCCO)c(=O)[nH]1` [ACV, 9-[(2-hydroxyethoxy)methyl]guanine, reference compound] yielded an inhibition at 0.0025 µg/mL in assay [1] (Single agent, Conc. 2.5 ng/ml) of 0%. Further, the “Virus Titer” value in assay [1] (Single agent, Conc. 2.5 ng/ml, Viral Control 2.6x10^5) is on record as 3x10^5 P.F.U./ml; in assay [1] (setting [3]), 1.85x10^5 P.F.U./ml. Besides, at 0.005 µg/mL the inhibition in assay [1] (Single agent, Conc. 5.0 ng/ml) was 30%.

On to `Nc1ccn([C@@H]2O[C@H](CO)[C@@H](O)/C2=C\F)c(=O)n1` [Compound A, (E)-2'-deoxy-2'-fluoromethylidenecytidine], for which the inhibition at 0.0125 µg/mL in assay [2] (Conc. 0.0125 ug/ml) turned out to be 32%; in assay [1] (Conc. 0.0125 ug/ml), 0%. Moreover, the “Virus Titer” value was 8.5x10^4 P.F.U./ml in assay [2] (Conc. 0.0125 ug/ml); 5.5x10^3 P.F.U./ml in assay [2] (Conc. 0.025 ug/ml); 0 P.F.U./ml in assay [2] (Conc. 0.050 ug/ml); 0 P.F.U./ml in assay [2] (Conc. 0.10 ug/ml); 5.5x10^8 P.F.U./ml in assay [1] (Conc. 0.0125 ug/ml, Viral Control 3.7x10^8); 4.5x10^7 P.F.U./ml in assay [1] (Conc. 0.025 ug/ml, Viral Control 3.7x10^8). Further, the “Virus Titer” value is 0 P.F.U./ml in assay [1] (Conc. 0.050 ug/ml, Viral Control 3.7x10^8); 0 P.F.U./ml in assay [1] (Conc. 0.10 ug/ml, Viral Control 3.7x10^8); 1.6x10^5 P.F.U./ml in assay [1] (setting [3]). For the same molecule, the inhibition at 0.025 µg/mL was found to be 96% in assay [2] (Conc. 0.025 ug/ml) and 88% in assay [1] (Conc. 0.025 ug/ml). The inhibition at 0.05 µg/mL in assay [2] (Conc. 0.050 ug/ml) and in assay [1] (Conc. 0.050 ug/ml) was 100% each time. Besides, the inhibition at 0.1 µg/mL in assay [2] (Conc. 0.10 ug/ml) and in assay [1] (Conc. 0.10 ug/ml) was 100% each time. Moreover, the inhibition at 0.005 µg/mL in assay [1] (Single agent, Conc. 5.0 ng/ml) worked out at 42%.

The inhibition is how much of the control response was suppressed. The low end stands for a weak effect, the high end for a strong effect.

The values above are taken from patent publication EP0671918B1, “COMPOSITIONS CONTAINING ACYCLOVIR-LIKE COMPOUNDS AND 2'-VINYL SUBSTITUTED NUCLEOSIDE ANALOGS FOR THE TREATMENT OF VIRAL INFECTIONS” (MERRELL PHARMACEUTICALS INC., priority 1992, dated 1994).
